Reference: PubChem BioAssay AID1919010 (Molecular Pharmacology Branch, DTP, NCI, 2023)

Test system: Hs578T complex spheroid growth, percent test/control
Assay: Anticancer human tumor Hs578T cell line growth inhibition [AhR];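 note: luminescent viability signal as a proxy for spheroid growth; spheroids exposed to agents for one week after three days of growth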
Settings: for IC50: curve of first compound; for viability, T/C: stronger effect = lower value
How it was run: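 Spheroids combined tumor cells with HUVEC endothelial cells and human MSCs as stroma. AhR antagonists were paired with standard or investigational drugs, each dosed in half-log steps down from near clinical Cmax, or from 10 microM where Cmax was unknown.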

[1] = second compound 0.1 µM, first compound 0.0316 µM
[2] = second compound 0.1 µM, first compound 0.1 µM
[3] = second compound 0.1 µM, first compound 0.316 µM
[4] = second compound 0.1 µM, first compound 1 µM
[5] = second compound 0.1 µM, first compound 3.16 µM
[6] = second compound 0.1 µM, first compound 10 µM
[7] = second compound 0.316 µM, first compound 0.0316 µM
[8] = second compound 0.316 µM, first compound 0.1 µM
[9] = second compound 0.316 µM, first compound 0.316 µM
[10] = second compound 0.316 µM, first compound 1 µM
[11] = second compound 0.316 µM, first compound 3.16 µM
[12] = second compound 0.316 µM, first compound 10 µM
[13] = second compound 1 µM, first compound 0.0316 µM
[14] = second compound 1 µM, first compound 0.1 µM
[15] = second compound 1 µM, first compound 0.316 µM
[16] = second compound 1 µM, first compound 1 µM
[17] = second compound 1 µM, first compound 3.16 µM
[18] = second compound 1 µM, first compound 10 µM
[19] = second compound 3.16 µM, first compound 0.0316 µM
[20] = second compound 3.16 µM, first compound 0.1 µM
[21] = second compound 3.16 µM, first compound 0.316 µM
[22] = second compound 3.16 µM, first compound 1 µM
[23] = second compound 3.16 µM, first compound 3.16 µM
[24] = second compound 3.16 µM, first compound 10 µM
[25] = second compound 10 µM, first compound 0.0316 µM
[26] = second compound 10 µM, first compound 0.1 µM
[27] = second compound 10 µM, first compound 0.316 µM
[28] = second compound 10 µM, first compound 1 µM
[29] = second compound 10 µM, first compound 3.16 µM
[30] = second compound 10 µM, first compound 10 µM
[31] = second compound 0.1 µM, first compound 0.00316 µM
[32] = second compound 0.1 µM, first compound 0.01 µM
[33] = second compound 0.316 µM, first compound 0.00316 µM
[34] = second compound 0.316 µM, first compound 0.01 µM
[35] = second compound 1 µM, first compound 0.00316 µM
[36] = second compound 1 µM, first compound 0.01 µM
[37] = second compound 3.16 µM, first compound 0.00316 µM
[38] = second compound 3.16 µM, first compound 0.01 µM
[39] = second compound 10 µM, first compound 0.00316 µM
[40] = second compound 10 µM, first compound 0.01 µM

Compound	IC50 (second compound 0.1 µM) [nM]	IC50 (second compound 0.316 µM) [nM]	IC50 (second compound 1 µM) [nM]	IC50 (second compound 3.16 µM) [nM]	IC50 (second compound 10 µM) [nM]	viability, T/C [1] [%]	viability, T/C [2] [%]	viability, T/C [3] [%]	viability, T/C [4] [%]	viability, T/C [7] [%]	viability, T/C [8] [%]	viability, T/C [9] [%]	viability, T/C [10] [%]	viability, T/C [13] [%]	viability, T/C [14] [%]	viability, T/C [15] [%]	viability, T/C [19] [%]	viability, T/C [20] [%]	viability, T/C [25] [%]	viability, T/C [26] [%]	further results
CC(C)c1c(-c2ccccc2)nc2c(C#N)c[nH]n2c1=O + Cc1ccccc1N=Nc1ccc(NC(=O)c2ccnn2C)c(C)c1	> 10000	> 10000	> 10000	> 10000	> 10000	102	99.4	108	103	105	113	119	99	103	103	106	96	94.7	64.4	66	viability, T/C [5]: 91.4%; viability, T/C [6]: 100%; viability, T/C [11]: 112%; viability, T/C [12]: 104%; viability, T/C [16]: 101%; viability, T/C [17]: 105%; viability, T/C [18]: 96.6%; viability, T/C [21]: 97.1%; viability, T/C [22]: 88.1%; viability, T/C [23]: 91.1%; viability, T/C [24]: 96%; viability, T/C [27]: 70.1%; viability, T/C [28]: 71.2%; viability, T/C [29]: 69.4%; viability, T/C [30]: 67.6%
CC[C@@]1(O)C(=O)OCc2c1cc1n(c2=O)Cc2cc3c(CN(C)C)c(O)ccc3nc2-1 + Cc1cncc(-c2nc(NCCc3c[nH]c4ccccc34)c3ncn(C(C)C)c3n2)c1	> 100	> 100	> 100	14.7	< 0.316	81.7	71.1			80.5	76.8			74.6	72.4		44.5	46.4	6.14	6.3	viability, T/C (second compound 0.1 µM, first compound 0.000316 µM): 109%; viability, T/C (second compound 0.1 µM, first compound 0.001 µM): 112%; viability, T/C [31]: 95.3%; viability, T/C [32]: 91.8%; viability, T/C (second compound 0.316 µM, first compound 0.000316 µM): 113%; viability, T/C (second compound 0.316 µM, first compound 0.001 µM): 112%; viability, T/C [33]: 108%; viability, T/C [34]: 86.2%; viability, T/C (second compound 1 µM, first compound 0.000316 µM): 102%; viability, T/C (second compound 1 µM, first compound 0.001 µM): 121%; viability, T/C [35]: 98.2%; viability, T/C [36]: 86.9%; viability, T/C (second compound 3.16 µM, first compound 0.000316 µM): 68.3%; viability, T/C (second compound 3.16 µM, first compound 0.001 µM): 72.9%; viability, T/C [37]: 67.6%; viability, T/C [38]: 52.4%; viability, T/C (second compound 10 µM, first compound 0.000316 µM): 9.03%; viability, T/C (second compound 10 µM, first compound 0.001 µM): 8.61%; viability, T/C [39]: 7.61%; viability, T/C [40]: 6.12%
COc1cc(C2c3cc4c(cc3C(OC3OC5COC(C)OC5C(O)C3O)C3COC(=O)C23)OCO4)cc(OC)c1O (stereo not given) + Cc1cncc(-c2nc(NCCc3c[nH]c4ccccc34)c3ncn(C(C)C)c3n2)c1	> 10000	> 10000	> 10000	1860	< 31.6	108	101	89	80.7	108	101	94.3	77	96.9	101	93	64	64.1	6.72	7.12	viability, T/C [5]: 88.5%; viability, T/C [6]: 63.9%; viability, T/C [11]: 76.9%; viability, T/C [12]: 61.3%; viability, T/C [16]: 85.8%; viability, T/C [17]: 73.2%; viability, T/C [18]: 63%; viability, T/C [21]: 61.5%; viability, T/C [22]: 49%; viability, T/C [23]: 49.3%; viability, T/C [24]: 37.8%; viability, T/C [27]: 5.72%; viability, T/C [28]: 3.77%; viability, T/C [29]: 4.01%; viability, T/C [30]: 4.25%
COc1cccc2c1C(=O)c1c(O)c3c(c(O)c1C2=O)CC(O)(C(=O)CO)CC3OC1CC(N)C(O)C(C)O1 (stereo not given) + Cc1cncc(-c2nc(NCCc3c[nH]c4ccccc34)c3ncn(C(C)C)c3n2)c1	561	480	363	315	< 31.6	90.3	87.7	73.5	26.6	97.1	87.5	68.2	19.3	92.9	80.5	56.7	62.1	52.9	6.81	6.99	viability, T/C [5]: 3.41%; viability, T/C [6]: 3.51%; viability, T/C [11]: 3.19%; viability, T/C [12]: 3.19%; viability, T/C [16]: 12.3%; viability, T/C [17]: 2.37%; viability, T/C [18]: 2.76%; viability, T/C [21]: 50.1%; viability, T/C [22]: 5.82%; viability, T/C [23]: 1.65%; viability, T/C [24]: 1.75%; viability, T/C [27]: 11.9%; viability, T/C [28]: 0.55%; viability, T/C [29]: 0.74%; viability, T/C [30]: 0.83%
Nc1ccn(C2OC(CO)C(O)C2(F)F)c(=O)n1 (stereo not given) + Cc1cncc(-c2nc(NCCc3c[nH]c4ccccc34)c3ncn(C(C)C)c3n2)c1	> 10000	> 10000	> 10000	< 31.6	< 31.6	59.4	59.6	62.6	56.5	67.2	65.4	63	60.9	61.6	65.2	56.3	37.8	42.8	4.28	4.47	viability, T/C [5]: 57.5%; viability, T/C [6]: 56.8%; viability, T/C [11]: 59.4%; viability, T/C [12]: 59.2%; viability, T/C [16]: 57.8%; viability, T/C [17]: 56.8%; viability, T/C [18]: 56.2%; viability, T/C [21]: 41.1%; viability, T/C [22]: 40.4%; viability, T/C [23]: 33.3%; viability, T/C [24]: 37.8%; viability, T/C [27]: 3.43%; viability, T/C [28]: 2.76%; viability, T/C [29]: 3.29%; viability, T/C [30]: 4.67%
Nc1ncn(C2CC(O)C(CO)O2)c(=O)n1 (stereo not given) + Cc1cncc(-c2nc(NCCc3c[nH]c4ccccc34)c3ncn(C(C)C)c3n2)c1	> 1000	> 1000	> 1000	> 1000	< 3.16	111	112	108	106	119	111	106	102	112	108	112	82.6	74.4	6.65	6.53	viability, T/C [31]: 105%; viability, T/C [32]: 114%; viability, T/C [33]: 116%; viability, T/C [34]: 110%; viability, T/C [35]: 109%; viability, T/C [36]: 105%; viability, T/C [16]: 108%; viability, T/C [37]: 73.1%; viability, T/C [38]: 76.2%; viability, T/C [21]: 77.4%; viability, T/C [22]: 75.7%; viability, T/C [39]: 6.02%; viability, T/C [40]: 6.62%; viability, T/C [27]: 6.26%; viability, T/C [28]: 6.45%
